From ChEMBL document CHEMBL4715922, “Methionine Adenosyltransferase Inhibitors for the Treatment of Cancer” (ACS Med Chem Lett, 2021) come the findings set out here.

Test [1] deals with HCT-116. In words: Antiproliferative activity against human HCT-116 cells harboring wild type […] assessed as reduction in cell growth incubated for 4 days by Cell Titer-Glo assay. Format: functional, cell-based. Particulars: HCT-116, 96 h.
In test [2] the target is T1, S-adenosylmethionine synthase isoform type-2 (Homo sapiens, UniProt P31153). The test is described as follows: Inhibition of recombinant human MAT2A expressed in baculovirus infected Sf9 cells using L-methionine as substrate incubated for 60 mins followed by substrate addition and measured after 60 mins by S-adenosyl methionine assay kit method.
In test [3] the test system is HCT-116. The test is described as follows: Antiproliferative activity against isogenic pair of human HCT-116 cells harboring […] del mutant assessed as reduction in cell growth incubated for 4 days by Cell Titer-Glo assay. Format: cell-based. Particulars: HCT-116, 96 h.
The target in test [4] is T1, S-adenosylmethionine synthase isoform type-2. In words: Inhibition of MAT2A in human HCT-116 cells assessed as reduction in SAM incubated for 72 hrs by LC-MS/MS analysis. Format: cell-based.

Where only a bound is given, the exact number is not on record here.

T1 sequence (P31153 whole entry, canonical isoform): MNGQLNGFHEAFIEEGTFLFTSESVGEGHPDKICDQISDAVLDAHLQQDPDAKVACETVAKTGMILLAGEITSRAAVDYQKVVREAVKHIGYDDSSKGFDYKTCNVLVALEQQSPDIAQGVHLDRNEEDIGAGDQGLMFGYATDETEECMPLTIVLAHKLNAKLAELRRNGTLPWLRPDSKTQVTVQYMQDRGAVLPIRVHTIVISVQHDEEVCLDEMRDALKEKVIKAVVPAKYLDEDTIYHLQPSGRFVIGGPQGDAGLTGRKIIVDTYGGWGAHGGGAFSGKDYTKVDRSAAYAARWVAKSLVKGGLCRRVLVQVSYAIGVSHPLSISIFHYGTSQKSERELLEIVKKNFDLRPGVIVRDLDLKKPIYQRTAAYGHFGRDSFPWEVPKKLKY

For the molecule `CCOc1ccc2nn(-c3ccc4nn(C)cc4c3)c(=O)c(-c3ccc(OC)cc3)c2n1`, the IC50 in the test on HCT-116 [1] is no less than 100 nM; in test [2] it was less than 100 nM; in the test on HCT-116 [3], less than 100 nM; in test [4] it was less than 100 nM.
`Cn1cc2cc(-n3nc4ccc(OCCC(F)(F)F)nc4c(-c4ccc(OC(F)F)cc4)c3=O)ccc2n1`: the IC50 is no less than 1000 nM with HCT-116 [1], less than 100 nM in test [2], no less than 100 nM in the test with HCT-116 [3] and no less than 100 nM in test [4].
For the molecule `Cn1cc2cc(-n3nc4ccc(OCC(F)(F)F)nc4c(-c4ccc(OC(F)F)cc4)c3=O)ccc2n1`, the IC50 is no less than 100 nM in the test with HCT-116 [1], less than 100 nM in test [2], less than 100 nM in the test on HCT-116 [3] and less than 100 nM in test [4].
As to `O=c1c(-c2ccc(OC(F)F)cc2)c2nc(OCC(F)F)ccc2nn1-c1ccc2ncsc2c1`, the IC50 (in the test on HCT-116 [1]; in test [2]; in the test with HCT-116 [3]; in test [4]) was less than 100 nM throughout.
As to `COc1ccc(-c2c(=O)n(-c3ccc4nn(C)cc4c3)nc3ccc(OCC(F)F)nc23)cn1`, the IC50 in the test on HCT-116 [1] was no less than 100 nM; in test [2], less than 100 nM; in the test on HCT-116 [3], less than 100 nM; in test [4], less than 100 nM.
For `Cn1cc2cc(-n3nc4ccc(SCC(F)(F)F)nc4c(-c4ccc(OC(F)F)cc4)c3=O)ccc2n1`, the IC50 was no less than 100 nM in the test with HCT-116 [1], less than 100 nM in test [2], less than 100 nM in the test with HCT-116 [3] and less than 100 nM in test [4].
In the case of `Cn1cc2cc(-n3nc4ccc(OCC(F)(F)F)nc4c(-c4ccc(Cl)cc4)c3=O)ccc2n1`, the IC50 is no less than 100 nM in the test with HCT-116 [1], less than 100 nM in test [2], less than 100 nM with HCT-116 [3] and less than 100 nM in test [4].
For the molecule `O=c1c(-c2ccc(OC(F)F)cc2)c2nc(OCC(F)F)ccc2nn1-c1ccc2c(c1)CCO2`, the half-inhibitory concentration (IC50) in the test with HCT-116 [1] was no less than 100 nM; in test [2] it was less than 100 nM; in the test on HCT-116 [3], less than 100 nM; in test [4], less than 100 nM.
For `Cn1cc2cc(-n3nc4ccc(OCC(F)F)nc4c(-c4ccc(OC(F)F)cc4)c3=O)ccc2n1`, the IC50 was no less than 100 nM with HCT-116 [1], less than 100 nM in test [2], less than 100 nM in the test on HCT-116 [3] and less than 100 nM in test [4].
With `[2H]C([2H])([2H])Oc1c2cc(-n3nc4ccc(OCC(F)F)nc4c(-c4ccc(OC(F)F)cc4)c3=O)ccc2nn1C`, the 50% inhibitory concentration (IC50) with HCT-116 [1] was no less than 100 nM; in test [2], less than 100 nM; in the test on HCT-116 [3], less than 100 nM; in test [4], less than 100 nM.

In general, IC50 refers to the concentration that inhibits the measured activity by half.
